In ChEMBL document CHEMBL5055639, “ω-Functionalized Lipid Prodrugs of HIV NtRTI Tenofovir with Enhanced Pharmacokinetic Properties” (J Med Chem, 2021):

How the values were obtained:
Cytochrome P450 3A4 = Cytochrome P450 3A4 (Homo sapiens, UniProt P08684); assay: Inhibition of human recombinant CYP3A4 expressed in insect microsome using 7-benzyloxy-4-trifluoromethylcoumarin as a substrate incubated for 30 mins followed by addition of NADPH regenerating system measured immediately by fluorescence based analysis; type: ADME, microsomes
[1] = Plasma protein binding in C57BL/6 mouse at 10 mg/kg, po measured up to 24 hrs by LC-MS/MS; type: ADME, organism-based; conditions: read-out: PPB
[2] = Prodrug conversion in C57BL/6 mouse liver assessed as AUC(0 to 24 hrs) of TFV metabolite at 10 mg/kg, po measured up to 24 hrs by LC-MS/MS analysis; type: ADME, organism-based; parameters: time < 24 hrs, dose 10 mg/kg, route po; conditions: in vivo
[3] = system: Human immunodeficiency virus; assay: Antiviral activity against human immunodeficiency virus expressed in HEK293T cells coexpressing firefly luciferase gene incubated for 48 hrs by Bright-Glo luciferase assay; type: functional, organism-based; conditions: Human immunodeficiency virus 1, HEK-293T
[4] = Ratio of prodrug AUC(0 to 24 hrs) to TFV AUC(0 to 24 hrs) in C57BL/6 mouse plasma at 10 mg/kg, po measured up to 24 hrs by LC-MS/MS analysis; type: ADME, organism-based; conditions: in vivo
Cytochrome P450 2D6 = Cytochrome P450 2D6 (Homo sapiens, UniProt P10635); assay: Inhibition of human recombinant CYP2D6 expressed in insect microsome using (3-[2-([…]-N-methylammonium)-ethyl]-7-methoxy-4-methylcoumarin iodide as a substrate incubated for 30 mins followed by addition of NADPH regenerating system measured immediately by fluorescence based analysis; type: ADME, microsomes
[5] = Tmax in C57BL/6 mouse plasma at 10 mg/kg, po measured up to 24 hrs by LC-MS/MS analysis; type: ADME, organism-based; conditions: in vivo
[6] = Ratio of prodrug AUC(0 to 24 hrs) to TFV AUC(0 to 24 hrs) in C57BL/6 mouse liver at 10 mg/kg, po measured up to 24 hrs by LC-MS/MS analysis; type: ADME, organism-based; conditions: in vivo
[7] = Prodrug conversion in C57BL/6 mouse plasma assessed as Cmax of TFV metabolite at 10 mg/kg, po measured up to 24 hrs by LC-MS/MS analysis; type: ADME, organism-based; parameters: time < 24 hrs, dose 10 mg/kg, route po; conditions: in vivo
[8] = Prodrug conversion in C57BL/6 mouse plasma assessed as AUC(0 to 24 hrs) of TFV metabolite at 10 mg/kg, po measured up to 24 hrs by LC-MS/MS analysis; type: ADME, organism-based; parameters: time < 24 hrs, dose 10 mg/kg, route po; conditions: in vivo
[9] = Prodrug conversion in C57BL/6 mouse liver assessed as Tmax of TFV metabolite at 10 mg/kg, po measured up to 24 hrs by LC-MS/MS analysis; type: ADME, organism-based; conditions: in vivo
[10] = Therapeutic index, ratio of CC50 for cytotoxicity against HEK293T cells to IC50 for antiviral activity against human immunodeficiency virus expressed in HEK293T cells; type: toxicity, cell-based; conditions: read-out: Ratio CC50/IC50
[11] = Prodrug conversion in C57BL/6 mouse liver assessed as Cmax of TFV metabolite at 10 mg/kg, po measured up to 24 hrs by LC-MS/MS analysis; type: ADME, organism-based; parameters: dose 10 mg/kg, time < 24 hrs, route po; conditions: in vivo
HEK-293T [12] = assay: Cytotoxicity against HEK293T cells assessed as reduction in cell viability measured after 48 hrs by CellTiter 96 Aqueous One Solution reagent based cell proliferation assay; conditions: human
[13] = Metabolic stability in human liver microsomes assessed as half life at 3 uM measured up to 30 min in presence of NADPH by LC-MS/MS analysis; type: ADME, Microsome; conditions: 0.5 h
[14] = Tmax in C57BL/6 mouse liver at 10 mg/kg, po measured up to 24 hrs by LC-MS/MS analysis; type: ADME, organism-based
[15] = Prodrug conversion in C57BL/6 mouse plasma assessed as Tmax of TFV metabolite at 10 mg/kg, po measured up to 24 hrs by LC-MS/MS analysis; type: ADME, organism-based; conditions: in vivo
[16] = system: Human immunodeficiency virus; assay: Potency index, ratio of test compound IC50 to TXL IC50 for antiviral activity against human immunodeficiency virus expressed in HEK293T cells coexpressing firefly luciferase gene incubated for 48 hrs by Bright-Glo luciferase assay; type: functional
[17] = system: Human immunodeficiency virus; assay: Antiviral activity against human immunodeficiency virus expressed in HEK293T cells coexpressing firefly luciferase gene incubated for 48 hrs in absence of HSA by Bright-Glo luciferase assay; type: functional, organism-based; conditions: Human immunodeficiency virus 1, HEK-293T
[18] = Therapeutic index, ratio of CC50 for cytotoxicity against HEK293T cells in absence of HSA to IC50 for antiviral activity against human immunodeficiency virus expressed in HEK293T cells in absence of HSA; type: toxicity, cell-based; conditions: read-out: Ratio CC50/IC50
HEK-293T [19] = assay: Cytotoxicity against HEK293T cells assessed as reduction in cell viability in absence of HSA measured after 48 hrs by CellTiter 96 Aqueous One Solution reagent based cell proliferation assay; conditions: human
[20] = AUC(0 to 24 hrs) in C57BL/6 mouse liver at 10 mg/kg, po measured up to 24 hrs by LC-MS/MS analysis; type: ADME, organism-based; parameters: time < 24 hrs, dose 10 mg/kg, route po; conditions: in vivo
[21] = Half life in C57BL/6 mouse plasma at 10 mg/kg, po measured up to 24 hrs by LC-MS/MS analysis; type: ADME, organism-based; conditions: in vivo
[22] = Cmax in C57BL/6 mouse plasma at 10 mg/kg, po measured up to 24 hrs by LC-MS/MS analysis; type: ADME, organism-based; parameters: dose 10 mg/kg, time < 24 hrs, route po; conditions: in vivo
[23] = AUC(0 to 24 hrs) in C57BL/6 mouse plasma at 10 mg/kg, po measured up to 24 hrs by LC-MS/MS analysis; type: ADME, organism-based; parameters: time < 24 hrs, dose 10 mg/kg, route po; conditions: in vivo
[24] = Cmax in C57BL/6 mouse liver at 10 mg/kg, po measured up to 24 hrs by LC-MS/MS analysis; type: ADME, organism-based; parameters: time < 24 hrs, dose 10 mg/kg, route po; conditions: in vivo
[25] = C57BL/6, mouse, liver, read-out: Tmax

Chain of Cytochrome P450 3A4 (P08684 whole entry): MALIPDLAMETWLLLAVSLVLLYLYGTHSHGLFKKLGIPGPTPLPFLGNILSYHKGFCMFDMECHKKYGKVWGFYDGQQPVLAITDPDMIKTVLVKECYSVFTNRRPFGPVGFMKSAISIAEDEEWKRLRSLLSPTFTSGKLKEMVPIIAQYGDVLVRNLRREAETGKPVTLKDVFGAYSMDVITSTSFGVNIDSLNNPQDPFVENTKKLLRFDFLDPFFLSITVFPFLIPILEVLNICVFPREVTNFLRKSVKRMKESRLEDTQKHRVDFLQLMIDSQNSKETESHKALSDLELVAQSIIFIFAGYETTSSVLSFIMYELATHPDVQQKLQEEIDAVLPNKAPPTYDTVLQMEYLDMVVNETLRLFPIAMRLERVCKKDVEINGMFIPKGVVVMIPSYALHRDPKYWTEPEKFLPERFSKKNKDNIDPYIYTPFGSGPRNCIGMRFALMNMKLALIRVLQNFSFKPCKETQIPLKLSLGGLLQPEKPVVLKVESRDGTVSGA
Chain of Cytochrome P450 2D6 (P10635 whole entry): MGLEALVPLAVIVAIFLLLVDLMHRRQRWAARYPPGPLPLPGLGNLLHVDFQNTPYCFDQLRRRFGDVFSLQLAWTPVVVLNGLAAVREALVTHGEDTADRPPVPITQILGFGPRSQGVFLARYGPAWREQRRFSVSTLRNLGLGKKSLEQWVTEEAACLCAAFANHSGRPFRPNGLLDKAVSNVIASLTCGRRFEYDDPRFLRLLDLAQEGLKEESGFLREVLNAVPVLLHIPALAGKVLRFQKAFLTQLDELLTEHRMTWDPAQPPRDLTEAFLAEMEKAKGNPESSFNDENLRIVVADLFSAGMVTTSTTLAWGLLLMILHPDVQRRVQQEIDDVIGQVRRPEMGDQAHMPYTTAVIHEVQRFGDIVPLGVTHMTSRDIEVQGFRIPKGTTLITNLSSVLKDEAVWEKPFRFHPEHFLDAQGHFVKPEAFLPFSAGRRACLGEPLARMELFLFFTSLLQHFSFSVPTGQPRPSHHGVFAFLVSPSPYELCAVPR

| Structure (SMILES) | IC50 (Cytochrome P450 3A4) [µM] | fraction unbound at 24 h [1] | AUC [2] [ng·h/mL] | IC50 [3] [µM] | IC50 (Cytochrome P450 2D6) [µM] | Tmax [5] [h] | Cmax [7] [ng/mL] | AUC [8] [ng·h/mL] | Tmax [9] [h] | selectivity ratio [10] | Cmax [11] [ng/mL] | CC50 (HEK-293T [12]) [µM] | t1/2 [13] [h] | Tmax [15] [h] | other results |
| --- | --- | --- | --- | --- | --- | --- | --- | --- | --- | --- | --- | --- | --- | --- | --- |
| C[C@H](Cn1cnc2c(N)ncnc21)OCP(=O)(O)OCCCOCCCCCCCCCCCCCCCC(F)(F)F.N | > 20 | < 0.001 | 22600 | 0.049 | > 20 | 2 | 22.1 | 337 | 24 | > 2040 | 1120 | > 100 | > 2 | 8 | Ratio AUC [4]: 3.8; Ratio AUC [6]: 4.81; Tmax ([14]; mouse, in vivo, po, 10 mg/kg, 24 h): 2 h |
| C#CCCCCCCCCCCCCCCCCOP(=O)(O)CO[C@H](C)Cn1cnc2c(N)ncnc21.N |  |  |  | 2.03 |  |  |  |  |  | > 49 |  | > 100 | > 2 |  |  |
| C[C@H](Cn1cnc2c(N)ncnc21)OCP(=O)(O)OCCCCCCCCCCCCCCCCCCCC(F)(F)F.N | > 20 |  |  | 0.12 | > 20 |  |  |  |  | 603 |  | 72.4 | > 2 |  |  |
| CCCCCCCCCCCCCCCCCCCCOP(=O)(O)CO[C@H](C)Cn1cnc2c(N)ncnc21.N | 50 |  |  | 0.127 | 33.2 |  |  |  |  | 104 |  | 13.2 |  |  | Ratio IC50 [16]: 7 |
| C[C@H](Cn1cnc2c(N)ncnc21)OCP(=O)(O)O [TENOFOVIR ANHYDROUS] | 45.8 |  |  | 1.6 | > 50 |  |  |  |  | 22 |  | 35.4 |  |  | IC50 [17]: 2.06 µM; selectivity ratio [18]: > 49; CC50 (HEK-293T [19]): > 100 µM |
| C[C@H](Cn1cnc2c(N)ncnc21)OCP(=O)(O)OCCCOCCCCCCCCCCCCC#C[Si](C)(C)C.N | > 20 | < 0.001 | 11200 | 0.069 | 21.7 | 2 | 14.1 | 142 | 4 |  | 671 |  | > 2 | 12 | AUC [20]: 101000 ng·h/mL; t1/2 [21]: 2.49 h; Cmax [22]: 120 ng/mL; AUC [23]: 550 ng·h/mL; Cmax [24]: 8130 ng/mL; Tmax [14, 25]: 4 h |
| C[C@H](Cn1cnc2c(N)ncnc21)OCP(=O)(O)OCCCCCCCCCCCCCCCCCC#CC(F)(F)F.N | > 20 |  |  |  | > 20 |  |  |  |  | 423 |  | 78.7 | > 2 |  |  |
| C[C@H](Cn1cnc2c(N)ncnc21)OCP(=O)(O)OCCCOCCCCCCCCCCCCCC#CC(F)(F)F.N |  | < 0.001 | 21900 | 0.023 | > 20 | 2 | 42.8 | 425 | 4 | > 4350 | 1380 | > 100 | > 2 | 1 | AUC [20]: 1310 ng·h/mL; t1/2 [21]: 2.69 h; Cmax [22]: 153 ng/mL; Ratio AUC [4]: 1.51; Ratio AUC [6]: 0.06; AUC [23]: 643 ng·h/mL; Cmax [24]: 558 ng/mL; Tmax [14, 25]: 1 h |
